From ChEMBL document CHEMBL4418485, “Klf5 modulators” (2015)
Calls of active or inactive are those of the source. No cut-off for these calls is given here.

Legend:
[1] = system: HCT-116; assay: Reduction in KLF5 protein expression in human HCT116 cells at 10 uM by gel electrophoresis and autoradiography; format: functional, cell-based
[2] = system: DLD-1; assay: Reduction in KLF5 protein expression in human DLD1 cells at 10 uM by gel electrophoresis and autoradiography; format: functional, cell-based
[3] = system: HT-29; assay: Reduction in KLF5 protein expression in human HT-29 cells at 10 uM by gel electrophoresis and autoradiography; format: functional, cell-based
[4] = system: SW-620; assay: Reduction in KLF5 protein expression in human SW620 cells at 10 uM by gel electrophoresis and autoradiography; format: functional, cell-based
[5] = system: IEC-6; assay: Growth inhibition of rat IEC-6 cells relative to control; format: cell-based
[6] = system: DLD-1; assay: Cell cycle arrest in human DLD1 cells assessed as accumulation at subG1 phase accumulation after 48 hrs (reference value: 1.27 +/- 0.15%); format: functional
[7] = system: DLD-1; assay: Cell cycle arrest in human DLD1 cells assessed as accumulation at S phase accumulation after 48 hrs (reference value: 8.06 +/- 1.35%); format: functional
[8] = system: DLD-1; assay: Cell cycle arrest in human DLD1 cells assessed as accumulation at G2/M phase accumulation after 24 hrs (reference value: 46.58 +/- 3.73%); format: functional
[9] = system: DLD-1; assay: Cell cycle arrest in human DLD1 cells assessed as accumulation at G1 phase accumulation after 24 hrs (reference value: 34.78 +/- 2.58%); format: functional
[10] = system: DLD-1; assay: Cell cycle arrest in human DLD1 cells assessed as accumulation at G1 phase accumulation after 48 hrs (reference value: 32.63 +/- 3.18%); format: functional
[11] = system: DLD-1; assay: Cell cycle arrest in human DLD1 cells assessed as accumulation at S phase accumulation after 24 hrs (reference value: 18.05 +/- 1.13%); format: functional
[12] = system: DLD-1; assay: Cell cycle arrest in human DLD1 cells assessed as accumulation at G2/M phase accumulation after 48 hrs (reference value: 58.17 +/- 4.4%); format: functional
[13] = system: DLD-1; assay: Cell cycle arrest in human DLD1 cells assessed as accumulation at subG1 phase accumulation after 24 hrs (reference value: 0.81 +/- 0.13%); format: functional

CN(C(=O)CNC(=O)/C=C/c1cccc([N+](=O)[O-])c1)C1CCS(=O)(=O)C1 (stereo not given)
Activity [1]: inactive | Activity [2]: inactive | Activity [3]: inactive | Activity [4]: inactive

CN(C(=O)CNC(=O)/C=C/c1cccc(Cl)c1)C1CCS(=O)(=O)CC1
Activity [1]: Active | growth inhibition (GI) [5]: < 50% | Activity [2]: Active | Activity [6]: 9.63% | Activity [7]: 19.74% | Activity [8]: 29.81% | Activity [9]: 44.15% | Activity [10]: 31.58% | Activity [3]: Active | Activity [11]: 18.47% | Activity [12]: 39.36% | Activity [4]: Active | Activity [13]: 7.82%

CN(C(=O)COC(=O)/C=C/c1cccc([N+](=O)[O-])c1)C1CCS(=O)(=O)C1 (stereo not given)
Activity [1]: inactive | Activity [2]: inactive | Activity [3]: inactive | Activity [4]: inactive

CN(C(=O)CNC(=O)/C=C/c1cccc(Cl)c1)C1CCS(=O)(=O)C1 (stereo not given)
Activity [1]: inactive | Activity [2]: inactive | Activity [3]: inactive | Activity [4]: inactive
